The source of these data is patent US10077261B2, “Imidazolin-5-one derivative useful as FASN inhibitors for the treatment of cancer” (Janssen Pharmaceutica NV, priority 2012, dated 2018).

For this test, the target named is T1, hFASN enzyme (full length) (Homo sapiens, UniProt P49327).
T1 construct: 10 μL hFASN enzyme (full length, 300 ng, purified in house); made in house
Briefly: Fatty Acid Synthase (FASN) inhibition scintillation proximity assay. It is filed as biochemical. The note with it: for inhibition at 10 µM: read-out: Human FASN % inhibition @ 10 μM, 10 μM test compound; for IC50: read-out: Human FASN pIC50 (converted). In a few lines: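 Compounds at 0.01–30 μM were mixed with 300 ng purified full-length enzyme in 100 mM KH2PO4 pH 7.5, 1 mM DTT. Substrates ³H-acetyl-CoA and malonyl-CoA were then converted, and bead addition stopped the reaction. Signal was normalised to low and high plate controls and fitted by 4-parameter nonlinear regression.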

T1 sequence (P49327 whole entry): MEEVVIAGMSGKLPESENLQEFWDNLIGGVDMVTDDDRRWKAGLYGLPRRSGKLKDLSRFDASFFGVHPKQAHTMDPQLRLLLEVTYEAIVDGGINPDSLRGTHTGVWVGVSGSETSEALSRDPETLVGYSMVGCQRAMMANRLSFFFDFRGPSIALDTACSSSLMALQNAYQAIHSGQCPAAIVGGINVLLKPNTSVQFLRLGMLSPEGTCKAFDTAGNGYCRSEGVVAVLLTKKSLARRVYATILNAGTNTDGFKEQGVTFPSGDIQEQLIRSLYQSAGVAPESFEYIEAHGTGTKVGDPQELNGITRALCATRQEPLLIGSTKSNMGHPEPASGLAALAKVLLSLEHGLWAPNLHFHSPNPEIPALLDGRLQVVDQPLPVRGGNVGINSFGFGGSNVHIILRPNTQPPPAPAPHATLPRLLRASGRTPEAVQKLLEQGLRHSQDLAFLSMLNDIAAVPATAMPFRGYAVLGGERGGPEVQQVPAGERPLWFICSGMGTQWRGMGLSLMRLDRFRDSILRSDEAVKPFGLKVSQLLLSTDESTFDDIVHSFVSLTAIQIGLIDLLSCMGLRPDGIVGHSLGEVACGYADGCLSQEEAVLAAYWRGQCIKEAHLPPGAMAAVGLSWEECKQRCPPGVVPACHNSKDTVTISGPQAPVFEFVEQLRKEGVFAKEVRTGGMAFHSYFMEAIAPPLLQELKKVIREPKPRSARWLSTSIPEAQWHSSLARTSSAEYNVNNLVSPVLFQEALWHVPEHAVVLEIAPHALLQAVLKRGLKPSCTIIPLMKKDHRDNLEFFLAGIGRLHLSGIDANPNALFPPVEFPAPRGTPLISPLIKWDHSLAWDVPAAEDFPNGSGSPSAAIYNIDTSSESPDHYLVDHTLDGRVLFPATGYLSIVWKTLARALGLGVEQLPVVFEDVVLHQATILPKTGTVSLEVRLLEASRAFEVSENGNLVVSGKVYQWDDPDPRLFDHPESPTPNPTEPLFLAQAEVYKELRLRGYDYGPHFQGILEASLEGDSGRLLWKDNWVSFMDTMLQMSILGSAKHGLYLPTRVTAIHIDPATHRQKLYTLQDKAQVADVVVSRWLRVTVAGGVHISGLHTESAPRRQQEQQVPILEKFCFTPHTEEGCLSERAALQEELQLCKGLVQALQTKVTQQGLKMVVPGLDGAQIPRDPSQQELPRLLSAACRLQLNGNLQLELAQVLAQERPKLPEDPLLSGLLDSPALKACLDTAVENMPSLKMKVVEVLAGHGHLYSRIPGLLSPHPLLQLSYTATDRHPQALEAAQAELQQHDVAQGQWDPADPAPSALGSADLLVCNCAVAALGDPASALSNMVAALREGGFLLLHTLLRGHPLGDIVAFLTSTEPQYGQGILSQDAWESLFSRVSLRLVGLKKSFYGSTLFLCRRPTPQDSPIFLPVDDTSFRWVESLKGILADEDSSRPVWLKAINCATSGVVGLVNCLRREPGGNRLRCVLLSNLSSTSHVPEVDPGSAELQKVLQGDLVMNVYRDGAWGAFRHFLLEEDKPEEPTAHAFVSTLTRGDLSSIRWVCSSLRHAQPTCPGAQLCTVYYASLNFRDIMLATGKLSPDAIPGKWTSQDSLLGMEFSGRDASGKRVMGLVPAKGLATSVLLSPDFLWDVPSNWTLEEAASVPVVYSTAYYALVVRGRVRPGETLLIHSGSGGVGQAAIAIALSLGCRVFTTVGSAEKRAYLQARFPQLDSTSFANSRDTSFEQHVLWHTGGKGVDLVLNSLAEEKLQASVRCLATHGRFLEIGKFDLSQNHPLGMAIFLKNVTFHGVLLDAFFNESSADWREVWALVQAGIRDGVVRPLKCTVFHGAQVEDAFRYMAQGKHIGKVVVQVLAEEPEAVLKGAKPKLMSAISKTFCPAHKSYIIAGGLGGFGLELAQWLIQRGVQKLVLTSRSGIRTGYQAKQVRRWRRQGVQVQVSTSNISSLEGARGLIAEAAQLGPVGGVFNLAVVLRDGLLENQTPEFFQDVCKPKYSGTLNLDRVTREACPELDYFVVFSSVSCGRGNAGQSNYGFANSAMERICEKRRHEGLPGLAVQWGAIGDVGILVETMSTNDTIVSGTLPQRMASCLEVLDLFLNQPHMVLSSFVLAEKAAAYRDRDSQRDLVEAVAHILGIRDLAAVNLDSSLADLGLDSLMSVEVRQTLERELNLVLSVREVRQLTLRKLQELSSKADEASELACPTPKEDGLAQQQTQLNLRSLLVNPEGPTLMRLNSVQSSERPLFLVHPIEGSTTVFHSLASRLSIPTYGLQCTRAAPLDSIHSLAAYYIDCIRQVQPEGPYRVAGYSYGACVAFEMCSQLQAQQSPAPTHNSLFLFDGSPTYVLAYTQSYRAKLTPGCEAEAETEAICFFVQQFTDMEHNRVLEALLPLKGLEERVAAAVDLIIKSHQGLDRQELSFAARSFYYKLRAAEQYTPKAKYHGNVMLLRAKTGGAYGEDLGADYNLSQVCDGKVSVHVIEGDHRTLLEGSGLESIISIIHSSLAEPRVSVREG

`O=C(C1CC1)N1CCC(CN2C(=O)C3(CC3)N=C2c2ccc(-c3ccc(C(F)(F)F)cc3)cc2)CC1` [compound 859, 6-((1-(cyclopropanecarbonyl)piperidin-4-yl)methyl)-5-(4′-(trifluoromethyl)-[1,1′-biphenyl]-4-yl)-4,6-diazaspiro[2.4]hept-4-en-7-one]: the “Human FASN % inhibition @ 10 μM” value (10 μM test compound, 10 µM) is on record as 11%. In addition, where the note is “hFASN enzyme, full length, "~" means standard error of the pIC50 is larger than 0.5”, the “Human FASN pIC50” value is on record as below 5. On to `Nc1cncc(-c2ccc(C3=NC4(CC4)C(=O)N3C[C@@H]3CCN(C(=O)C4CC4)C3)cc2)c1` [compound 867, (R)-5-(4-(5-aminopyridi9n-3-yl)phenyl)-6-((1-(cyclopropanecarbonyl)pyrrolidin-3-yl)methyl)-4,6-diazaspiro[2.4]hept-4-en-7-one], for which the inhibition at 10 µM was determined as 44% and the IC50 was above 10 µM. As to `Cc1cc2cc(-c3ccc(C4=NC5(CC5)C(=O)N4CC4CN(C(=O)C5CC5)C4)c(F)c3)ccc2[nH]1` [compound 869, 6-((1-(cyclopropanecarbonyl)azetidin-3-yl)methyl)-5-(2-fluoro-4-(2-methyl-1H-indol-5-yl)phenyl)-4,6-diazaspiro[2.4]hept-4-en-7-one], the IC50 was 0.0468 µM. Still for that read-out and setting: the same measure for `Cn1ccc2cc(-c3ccc(C4=NC5(CC5)C(=O)N4CC4CN(C(=O)C5CC5)C4)c(F)c3)ccc21` [compound 870, 6-((1-(cyclopropanecarbonyl)azetidin-3-yl)methyl)-5-(2-fluoro-4-(1-methy7l-1H-indol-5-yl)phenyl)-4,6-diazaspiro[2.4]hept-4-en-7-one]: 0.0269 µM. Consider `CC(=O)c1ccc(-c2ccc(C3=NC4(CCCC4)C(=O)N3C[C@@H]3CCN(C(=O)C4CC4)C3)c(F)c2)cc1` [compound 886, (R)-2-(4′-acetyl-3-fluoro-[1,1′-biphenyl]-4-yl)-3-((1-(cyclopropanecarbonyl)pyrrolidin-3-yl)methyl)-1,3-diazaspiro[4.4]non-1-en-4-one], for which the inhibition at 10 µM came out at 79% and the IC50 was 1.91 µM. With `O=C(C1CC1)N1CC(CN2C(=O)C3(CC3)N=C2c2ccc(-c3ccc(Br)cn3)cc2)C1` [compound 887, 5-(4-(5-bromopyridin-2-yl)phenyl)-6-((1-(cyclopropanecarbonyl)azetidin-3-yl)methyl)-4,6-diazaspiro[2.4]hept-4-en-7-one], the inhibition at 10 µM was found to be 73% and the IC50 is 4.07 µM. The matching figures for `CS(=O)(=O)N1CC(CN2C(=O)C3(CCOCC3)N=C2c2ccc(-c3ccc4occc4c3)cc2)C1` [compound 888, 2-(4-(benzofuran-5-yl)phenyl)-3-((1-(methylsulfonyl)azetidin-3-yl)methyl)-8-oxa-1,3-diazaspiro[4.5]dec-1-en-4-one]: 1% and above 10 µM.

In the case of `COC(=O)N1CC[C@@H](CN2C(=O)C3(CCOCC3)N=C2c2ccc(-c3ccc4occc4c3)cc2)C1` [compound 889, (S)-methyl 3-((2-(4-(benzofuran-5-yl)phenyl)-4-oxo-8-oxa-1,3-diazaspiro[4.5]dec-1-en-3-yl)methyl)pyrrolidin-1-carboxylate], the inhibition at 10 µM came to 44% and the IC50 is above 10 µM.

Take `Cn1ncc2cc(-c3ccc(C4=NC5(CCOCC5)C(=O)N4C[C@@H]4CCN(C(=O)C(F)(F)F)C4)cc3)ccc21` [compound 890, (R)-2-(4-(1-methyl-1H-indazol-5-yl)phenyl)-3-((1-(2,2,2-trifluoroacetyl)pyrrolidin-3-yl)methyl)-8-oxa-1,3-diazaspiro[4.5]dec-1-en-4-one]: the inhibition at 10 µM came to 37% and the IC50 was above 10 µM.

On to `Cn1ncc2cc(-c3ccc(C4=NC5(CCOC5)C(=O)N4C[C@@H]4CCN(C(=O)c5nccs5)C4)cc3)ccc21` (stereo partly drawn) [compound 892, 2-(4-(1-methyl-1H-indazol-5-yl)phenyl)-3-(((R)-1-(thiazole-2-carbonyl)pyrrolidin-3-yl)methyl)-7-oxa-1,3-diazxaspiro[4.4]non-1-en-4-one], for which the inhibition at 10 µM was -29% and the IC50 was above 10 µM.

For `Cn1cc(-c2ccc(-c3ccc(C4=NC5(CCOCC5)C(=O)N4CC4CN(C(=O)C(F)(F)F)C4)cc3)cc2)cn1` [compound 893, 2-(4′-(1-methyl-1H-pyrazol-4-yl)-[1,1′-biphenyl]-4-yl)-3-((1-(2,2,2-trifluoroacetyl)azetidin-3-yl)methyl)-8-oxa-1,3-diazaspiro[4.5]dec-1-en-4-one], the inhibition at 10 µM was -12% and the IC50 is above 10 µM. In the case of `COC(=O)N1CC[C@@H](CN2C(=O)C3(CCOC3)N=C2c2ccc(-c3ccc(-c4cnn(C)c4)cc3)cc2)C1` (stereo partly drawn) [compound 894, (3S)-methyl 3-((2-(4′-(1-methyl-1H-pyrazol-4-yl)-[1,1′-biphenyl]-4-yl)-4-oxo-7-oxa-1,3-diazaspiro[4.4]non-1-en-3-yl)methyl)pyrrolidin-1-carboxylate], the inhibition at 10 µM was found to be 20% and the IC50 was above 10 µM. The matching figures for `O=C(N1CC(CN2C(=O)C3(CCOC3)N=C2c2ccc(-c3ccc4cccnc4c3)cc2)C1)C(F)(F)F` (stereo not shown) [compound 895, 2-(4-(quinolin-7-yl)phenyl)-3-((1-(2,2,2-trifluoroacetyl)azetidin-3-yl)methyl)-7-oxa-1,3-diazaspiro[4.4]non-1-en-4-one]: 6% and above 10 µM. Consider `Cn1cc(-c2ccc(-c3ccc(C4=NC5(CCOC5)C(=O)N4CC4CN(C(=O)c5nccs5)C4)cc3)cc2)cn1` (stereo not shown) [compound 901, 2-(4′-(1-methyl-1H-pyrazol-4-yl)-[1,1′-biphenyl]-4-yl)-3-((1-(thiazol-2-carbonyl)azetidin-3-yl)methyl)-7-oxa-1,3-diazaspiro[4.4]non-1-en-4-one], for which the inhibition at 10 µM was 2% and the IC50 was above 10 µM.

With `Cn1ncc2cc(-c3ccc(C4=NC5(CCOCC5)C(=O)N4CC4CN(S(C)(=O)=O)C4)cc3)ccc21` [compound 902, 2-(4-(1-methyl-1H-indazol-5-yl)phenyl)-3-((1-(methylsulfonyl)azetidin-3-yl)methyl)-8-oxa-1,3-diazaspiro[4.5]dec-1-en-4-one], the inhibition at 10 µM came out at 6% and the IC50 is above 10 µM. Regarding `COC(=O)N1CC(CN2C(=O)C3(CCOC3)N=C2c2ccc(-c3ccc4cccnc4c3)cc2)C1` (stereo not shown) [compound 903, methyl 3-((4-oxo-2-(4-(quinolin-7-yl)phenyl)-7-oxa-1,3-diazaspiro[4.4]non-1-en-3-yl)methyl)azetidine-1-carboxylate], the inhibition at 10 µM is 15% and the IC50 was above 10 µM. Turning to `COC(=O)N1CC(CN2C(=O)C3(CCOC3)N=C2c2ccc(-c3ccc4occc4c3)cc2)C1` (stereo not shown) [compound 904, methyl 3-((2-(4-(benzofuran-5-yl)phenyl)-4-oxo-7-oxa-1,3-diazaspiro[4.4]non-1-en-3-yl)methyl)azetidin-1-carboxylate], the inhibition at 10 µM was -24% and the IC50 is above 10 µM. The matching figures for `COC(=O)N1CC(CN2C(=O)C3(CCOC3)N=C2c2ccc(-c3ccc4c(cnn4C)c3)cc2)C1` (stereo not shown) [compound 905, methyl 3-((2-(4-(1-methyl-1H-indazol-5-yl)phenyl)-4-oxo-7-oxa-1,3-diazaspiro[4.4]non-1-en-3-yl)methyl)azetidine-1-carboxylate]: -7% and above 10 µM. For `COC(=O)N1CC[C@@H](CN2C(=O)C3(CN(C(=O)OC)C3)N=C2c2ccc(-c3ccc(-c4cnn(C)c4)cc3)cc2)C1` [compound 906, (S)-methyl 7-((1-(methoxycarbonyl)pyrrolidin-3-yl)methyl)-6-(4′-(1-methyl-1H-pyrazol-4-yl)-[1,1′-biphenyl]-4-yl)-8-oxo-2,5,7-triazaspiro[3.4]oct-5-ene-2-carboxylate], the inhibition at 10 µM turned out to be 14% and the IC50 was above 10 µM. For the molecule `COC(=O)N1CC2(C1)N=C(c1ccc(-c3ccc4c(cnn4C)c3)cc1)N(C[C@@H]1CCN(C(=O)C(F)(F)F)C1)C2=O` [compound 907, (R)-methyl 6-(4-(1-methyl-1H-indazol-5-yl)phenyl)-8-oxo-7-((1-(2,2,2-trifluoroacetyl)pyrrolidin-3-yl)methyl)-2,5,7-triazaspiro[3.4]oct-5-ene-2-carboxylate], the inhibition at 10 µM was determined as 21% and the IC50 was above 10 µM. The matching figures for `Cn1ncc2cc(-c3ccc(C4=NC5(CCOCC5)C(=O)N4CC4CN(C(=O)c5nccs5)C4)cc3)ccc21` [compound 908, 2-(4-(1-methyl-1H-indazol-5-yl)phenyl)-3-((1-(thiazole-2-carbonyl)azetidin-3-yl)methyl)-8-oxa-1,3-diazaspiro[4.5]dec-1-en-4-one]: 2% and above 10 µM. For `Cn1ncc2cc(-c3ccc(C4=NC5(CCOC5)C(=O)N4CC4CN(C(=O)c5nccs5)C4)cc3)ccc21` (stereo not shown) [compound 909, 2-(4-(1-methyl-1H-indazol-5-yl)phenyl)-3-((1-(thiazole-2-carbonyl)azetidin-3-yl)methyl)-7-oxa-1,3-diazaspiro[4.4]non-1-en-4-one], in that order: 6% and above 10 µM. `O=C(N1CC(CN2C(=O)C3(CCOCC3)N=C2c2ccc(-c3ccc4cccnc4c3)cc2)C1)C(F)(F)F` [compound 910, 2-(4-(quinolin-7-yl)phenyl)-3-((1-(2,2,2-trifluoroacetyl)azetidin-3-yl)methyl)-8-oxa-1,3-diazaspiro[4.5]dec-1-en-4-one]: the inhibition at 10 µM turned out to be 12% and the IC50 is above 10 µM. Take `Cn1cc(-c2ccc(-c3ccc(C4=NC5(CCOCC5)C(=O)N4CC4CN(C(=O)c5nccs5)C4)cc3)cc2)cn1` [compound 911, 2-(4′-(1-methyl-1H-pyrazol-4-yl)-[1,1′-biphenyl]-4-yl)-3-((1-(thiazole-2-carbonyl)azetidin-3-yl)methyl)-8-oxa-1,3-diazaspiro[4.5]dec-1-en-4-one]: the inhibition at 10 µM is 7% and the IC50 is above 10 µM.
